Converted amounts (≈) assume the structure as drawn.
Columns and labels:
[1] = system: Mycobacterium tuberculosis; assay: Antitubercular activity against Mycobacterium tuberculosis H37Rv ATCC 27294 after 28 days by agar dilution method; assay type: functional; conditions: H37Rv ATCC 27294, 672 h
[2] = Cytotoxicity against mouse NIH/3T3 cells assessed as growth inhibition at 50 ug/ml after 48 hrs by MTT assay relative to control; assay type: cell-based, NIH3T3; conditions: read-out: GI

Structure (SMILES)	MIC [1]	inhibition at 48 h, 50 ug/ml [2]
Cc1nn2c(COCc3cn(Cc4ccccc4F)nn3)c(-c3ccc(Cl)cc3)nc2s1	50 µg/mL (≈ 107 µM)	
NC(=O)c1cnccn1 [PYRAZINAMIDE]	50 µg/mL (≈ 406 µM)	
Cc1nn2c(COCc3cn(Cc4ccccc4)nn3)c(-c3ccc(Cl)cc3)nc2s1	25 µg/mL (≈ 55.4 µM)	
CCn1cc(COCc2c(-c3ccc(C)cc3)nc3sc(C)nn23)nn1	25 µg/mL (≈ 67.8 µM)	
Cc1nn2c(COCc3cn(CC(=O)O)nn3)c(-c3ccc(Cl)cc3)nc2s1	50 µg/mL (≈ 119 µM)	
CCOC(=O)Cn1cc(COCc2c(-c3ccc(C)cc3)nc3sc(C)nn23)nn1	50 µg/mL (≈ 117 µM)	
NNC(=O)c1ccncc1 [ISONIAZID]	0.1 µg/mL (≈ 0.729 µM)	
CCn1cc(COCc2c(-c3ccc(OC)cc3)nc3sc(C)nn23)nn1	25 µg/mL (≈ 65 µM)	
Cc1ccc(-c2nc3sc(C)nn3c2COCc2cn(Cc3ccccc3F)nn2)cc1	50 µg/mL (≈ 111 µM)	
COc1ccc(-c2nc3sc(C)nn3c2COCc2cn(Cc3ccccc3)nn2)cc1	3.12 µg/mL (≈ 7 µM)	22.7%
COc1ccc(-c2nc3sc(C)nn3c2COCc2cn(Cc3ccc(F)cc3)nn2)cc1	12.5 µg/mL (≈ 26.9 µM)	19.1%
Cc1nn2c(COCc3cn(Cc4ccc(F)cc4)nn3)c(-c3ccc(Cl)cc3)nc2s1	25 µg/mL (≈ 53.3 µM)	
COc1ccc(-c2nc3sc(C)nn3c2COCc2cn(Cc3ccccc3F)nn2)cc1	25 µg/mL (≈ 53.8 µM)	
CCOC(=O)Cn1cc(COCc2c(-c3ccc(Cl)cc3)nc3sc(C)nn23)nn1	12.5 µg/mL (≈ 28 µM)	28.2%
Cc1nn2c(COCc3cn(CC#N)nn3)c(-c3ccc(Cl)cc3)nc2s1	6.25 µg/mL (≈ 15.6 µM)	27.3%
CC[C@@H](CO)NCCN[C@@H](CC)CO [ETHAMBUTOL]	3.12 µg/mL (≈ 15.3 µM)	
Cc1nn2c(COCc3cn(C(C)C)nn3)c(-c3ccc(Cl)cc3)nc2s1	50 µg/mL (≈ 124 µM)	
Cc1ccc(-c2nc3sc(C)nn3c2COCc2cn(CC#N)nn2)cc1	25 µg/mL (≈ 65.9 µM)	
Cc1ccc(-c2nc3sc(C)nn3c2COCc2cn(Cc3ccccc3)nn2)cc1	25 µg/mL (≈ 58.1 µM)	
CCOC(=O)Cn1cc(COCc2c(-c3ccc(OC)cc3)nc3sc(C)nn23)nn1	50 µg/mL (≈ 113 µM)	
CCn1cc(COCc2c(-c3ccc(Cl)cc3)nc3sc(C)nn23)nn1	3.12 µg/mL (≈ 8.04 µM)	20.1%
COc1ccc(-c2nc3sc(C)nn3c2COCc2cn(CC#N)nn2)cc1	50 µg/mL (≈ 126 µM)	
Cc1ccc(-c2nc3sc(C)nn3c2COCc2cn(Cc3ccc(F)cc3)nn2)cc1	50 µg/mL (≈ 111 µM)	

— ChEMBL document CHEMBL3616467, “One-pot synthesis of new triazole--Imidazo[2,1-b][1,3,4]thiadiazole hybrids via click chemistry and evaluation of their antitubercular activity” (Bioorg Med Chem Lett, 2015)
